Assay results as given in patent US20250313535A1, “ALPHA 4 BETA 7 INTEGRIN MODULATORS AND USES THEREOF” (DICE MOLECULES SV, INC., priority 2022, published 2025).

How the values were obtained:
[1] = molecular target: α4β1 integrin (Homo sapiens (Human), UniProt P05556+P13612); test: Integrin Adhesion Assay: Protocol 5 (VCAM-coated plate, RPMI-8866 cells with stable LOF mutation of the ITGB7 gene); assay type: cell-based; settings: Protocol 5; RPMI-8866 cells with LOF mutation of ITGB7, VCAM; read-out: Mean IC50 α4β1 KO
α4β1 integrin, sequence (P13612 34-1032): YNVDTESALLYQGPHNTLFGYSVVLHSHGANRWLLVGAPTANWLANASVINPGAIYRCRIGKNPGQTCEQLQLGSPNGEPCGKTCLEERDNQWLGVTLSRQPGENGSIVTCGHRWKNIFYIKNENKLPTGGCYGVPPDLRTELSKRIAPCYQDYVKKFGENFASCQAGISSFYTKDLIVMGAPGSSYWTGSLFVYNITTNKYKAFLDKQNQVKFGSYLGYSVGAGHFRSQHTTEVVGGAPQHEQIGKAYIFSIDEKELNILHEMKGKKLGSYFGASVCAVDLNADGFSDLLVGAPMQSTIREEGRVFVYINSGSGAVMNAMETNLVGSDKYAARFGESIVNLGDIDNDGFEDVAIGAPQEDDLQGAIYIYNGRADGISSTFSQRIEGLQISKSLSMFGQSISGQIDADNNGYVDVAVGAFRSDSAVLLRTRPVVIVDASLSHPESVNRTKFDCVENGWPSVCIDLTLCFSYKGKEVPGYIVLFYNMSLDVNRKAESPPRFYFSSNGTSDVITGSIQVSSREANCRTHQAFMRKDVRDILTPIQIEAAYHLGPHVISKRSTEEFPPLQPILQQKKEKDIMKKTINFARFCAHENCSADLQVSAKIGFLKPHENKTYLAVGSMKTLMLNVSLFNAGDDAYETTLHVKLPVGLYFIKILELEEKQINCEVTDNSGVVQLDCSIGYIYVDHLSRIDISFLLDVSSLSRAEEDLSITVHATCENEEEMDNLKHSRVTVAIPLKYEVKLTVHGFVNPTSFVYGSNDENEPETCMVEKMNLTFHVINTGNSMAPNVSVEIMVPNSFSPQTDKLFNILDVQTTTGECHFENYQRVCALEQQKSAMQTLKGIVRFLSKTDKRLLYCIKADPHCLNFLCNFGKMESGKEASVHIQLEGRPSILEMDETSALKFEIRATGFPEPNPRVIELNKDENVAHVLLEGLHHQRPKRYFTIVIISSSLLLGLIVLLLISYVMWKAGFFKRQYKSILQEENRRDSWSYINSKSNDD
α4β1 integrin, sequence (P05556 21-798): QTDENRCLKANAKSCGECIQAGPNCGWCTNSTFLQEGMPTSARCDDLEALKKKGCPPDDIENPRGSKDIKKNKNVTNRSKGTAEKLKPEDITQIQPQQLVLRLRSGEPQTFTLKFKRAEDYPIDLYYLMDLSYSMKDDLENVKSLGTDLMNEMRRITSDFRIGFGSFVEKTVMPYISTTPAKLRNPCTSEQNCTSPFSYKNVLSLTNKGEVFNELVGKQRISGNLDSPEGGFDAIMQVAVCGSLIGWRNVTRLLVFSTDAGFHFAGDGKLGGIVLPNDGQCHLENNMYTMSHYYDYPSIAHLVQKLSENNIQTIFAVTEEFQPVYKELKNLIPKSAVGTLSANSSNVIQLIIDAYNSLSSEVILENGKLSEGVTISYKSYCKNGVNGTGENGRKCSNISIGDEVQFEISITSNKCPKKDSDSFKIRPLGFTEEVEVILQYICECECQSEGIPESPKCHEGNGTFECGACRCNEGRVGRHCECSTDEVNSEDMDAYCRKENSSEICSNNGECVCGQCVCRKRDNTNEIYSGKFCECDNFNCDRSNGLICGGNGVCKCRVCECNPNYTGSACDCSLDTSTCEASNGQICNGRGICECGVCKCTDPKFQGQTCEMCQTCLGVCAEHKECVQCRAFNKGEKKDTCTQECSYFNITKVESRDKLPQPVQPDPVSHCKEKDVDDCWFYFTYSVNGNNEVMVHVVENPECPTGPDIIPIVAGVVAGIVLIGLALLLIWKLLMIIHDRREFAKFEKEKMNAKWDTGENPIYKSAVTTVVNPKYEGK
Procedure, shortened: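 RPMI-8866 B cells with CRISPR/Cas9 ITGB7 knockout (clonal, verified by flow cytometry) adhered to VCAM-coated wells for 1 h at 37° C in HEPES/NaCl buffer with 1 mM MnCl2, 0.1 mM CaCl2, 1% BSA, 1% DMSO. Bound cells quantified by CellTiter-Glo luminescence after washing; % inhibition versus DMSO and control, 4-parameter fit.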

[2] = molecular target: α4β7 integrin (Homo sapiens (Human), UniProt P13612+P26010); test: Integrin Adhesion Assay: Protocol 4 (MAdCAM-coated plate, RPMI-8866 cells with stable LOF mutation of the ITGB1 gene); assay type: cell-based; settings: Protocol 4; RPMI-8866 cells with LOF mutation of ITGB1, MAdCAM; read-out: Mean IC50 α4β7 KO
α4β7 integrin, sequence (P13612 34-1032): as the sequence (P13612 34-1032) above
α4β7 integrin, sequence (P26010 20-798): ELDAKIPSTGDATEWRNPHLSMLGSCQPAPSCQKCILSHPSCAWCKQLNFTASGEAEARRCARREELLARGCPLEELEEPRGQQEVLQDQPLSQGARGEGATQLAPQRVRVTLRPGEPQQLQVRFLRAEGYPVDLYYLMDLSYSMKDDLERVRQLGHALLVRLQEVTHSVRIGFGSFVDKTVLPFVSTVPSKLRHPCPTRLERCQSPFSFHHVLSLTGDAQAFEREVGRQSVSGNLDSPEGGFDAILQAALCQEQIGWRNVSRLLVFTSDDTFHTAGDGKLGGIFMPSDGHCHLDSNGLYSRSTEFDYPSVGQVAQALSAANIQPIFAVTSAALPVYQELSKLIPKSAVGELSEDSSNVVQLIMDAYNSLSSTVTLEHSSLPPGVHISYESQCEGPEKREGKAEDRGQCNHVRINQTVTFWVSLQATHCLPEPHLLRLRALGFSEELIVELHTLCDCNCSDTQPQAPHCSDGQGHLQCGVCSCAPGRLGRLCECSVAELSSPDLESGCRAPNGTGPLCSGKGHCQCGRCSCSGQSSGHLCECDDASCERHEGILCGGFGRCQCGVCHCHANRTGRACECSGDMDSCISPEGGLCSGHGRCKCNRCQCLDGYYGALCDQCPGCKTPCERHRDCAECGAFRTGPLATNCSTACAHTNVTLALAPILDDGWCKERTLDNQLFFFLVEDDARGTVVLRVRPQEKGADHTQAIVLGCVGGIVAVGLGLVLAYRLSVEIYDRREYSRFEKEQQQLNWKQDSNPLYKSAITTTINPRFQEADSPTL
Procedure, shortened: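 RPMI-8866 cells with CRISPR/Cas9 knockout of ITGB1 (2×10^6/mL) were added to MAdCAM-coated wells with compound (1% DMSO) in HEPES/NaCl buffer with 1 mM MnCl2, 0.1 mM CaCl2 and 1% BSA, then incubated 1 h at 37 °C. After four washes, adherent cells were quantified by CellTiter-Glo luminescence. Percent inhibition versus DMSO and control compound was fitted to 4-parameter curves.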

| IC50 [1] [nM] | IC50 [2] [nM] | SMILES |
| --- | --- | --- |
| > 1000 | < 10 | COc1cc(CCN2CCCCC2)cnc1-c1cccc2c(C[C@H](NC(=O)C3(C(F)(F)F)CCN(CC(F)(F)F)CC3)C(=O)O)cccc12 [Compound 983] |
| 100 to 1000 | < 10 | COc1cccc(CCN2CCCC(C)(C)C2)c1-c1cccc2c(C[C@H](NC(=O)C3(C(F)(F)F)CCN(CC(F)F)CC3)C(=O)O)cccc12 [Compound 984] |
| 100 to 1000 | < 10 | COc1cccc(CCN2CCC[C@@H](F)C2)c1-c1cccc2c(C[C@H](NC(=O)C3(C(F)(F)F)CCN(CC(F)(F)F)CC3)C(=O)O)cccc12 [Compound 985] |
| 100 to 1000 | < 10 | CC1(C)CCN(Cc2ccc(-c3cccc4c(C[C@H](NC(=O)C5(C(F)(F)F)CCN(CC(F)(F)F)CC5)C(=O)O)cccc34)c3cnccc23)CC1 [Compound 986] |
| > 1000 | < 10 | O=C(O)[C@H](Cc1cccc2c(-c3ccc(CN4CCC(F)CC4)c4ccncc34)cccc12)NC(=O)C1(C(F)(F)F)CCN(CC(F)(F)F)CC1 [Compound 987] |
| > 1000 | 10 to 100 | O=C(O)[C@H](Cc1cccc2c(-c3nc(CN4CCCCC4)cc4ccccc34)cccc12)NC(=O)C1(C(F)(F)F)CCN(CC(F)(F)F)CC1 [Compound 988] |
| > 1000 | 10 to 100 | O=C(O)[C@H](Cc1cccc2c(-c3ccc(CN4CCCC(F)C4)c4ccncc34)cccc12)NC(=O)C1(C(F)(F)F)CCN(CC(F)(F)F)CC1 (stereo partly shown) [Compound 989] |
| > 1000 | < 10 | CN1CCC(Cc2ccc3ccnc(-c4cccc5c(C[C@H](NC(=O)C6(C(F)(F)F)CCN(CC(F)(F)F)CC6)C(=O)O)cccc45)c3c2)CC1 [Compound 990] |
| > 1000 | 100 to 1000 | O=C(O)[C@H](Cc1cccc2c(-c3cccc4cc(CN5CCCCC5)ncc34)cccc12)NC(=O)C1(C(F)(F)F)CCN(CC(F)(F)F)CC1 [Compound 991] |
| 100 to 1000 | < 10 | COc1cc2c(c(OC)c1-c1cccc3c(C[C@H](NC(=O)C4(C(F)(F)F)CCN(CC(F)(F)F)CC4)C(=O)O)cccc13)CN(C1CCCCC1)CC2 [Compound 993] |
| > 1000 | 10 to 100 | COC(=O)[C@H](Cc1cccc2c(-c3nc(CN4CCCCC4)cc4ccncc34)cccc12)NC(=O)C1(C(F)(F)F)CCN(CC(F)(F)F)CC1 [Compound 994] |
| 100 to 1000 | 10 to 100 | COc1ccc2c(c1-c1cccc3c(C[C@H](NC(=O)c4c(C)cccc4F)C(=O)O)cccc13)CN(CC(F)F)CC2 [Compound 995] |
| > 1000 | 10 to 100 | COc1cc(CN2CCC(C(F)(F)F)CC2)cnc1-c1cccc2c(C[C@H](NC(=O)c3c(C)cccc3F)C(=O)O)cccc12 [Compound 996] |
| > 1000 | 10 to 100 | COc1ccc2c(c1-c1cccc3c(C[C@H](NC(=O)c4c(C)cccc4F)C(=O)O)cccc13)CCN(CC(F)(F)F)C2 [Compound 997] |

Further lines, the molecule ahead of its results:

| SMILES | IC50 [1] [nM] | IC50 [2] [nM] |
| --- | --- | --- |
| O=C(O)[C@H](Cc1cccc2c(-c3ncc(CN4CCN(C5CC5)CC4)cc3C3CC3)cccc12)NC(=O)C1(C(F)(F)F)CCN(CC(F)F)CC1 [Compound 952] | 100 to 1000 | < 10 |
| O=C(O)[C@H](Cc1cccc2c(-c3ncc(CN4CCC[C@H](F)C4)cc3C3CC3)cccc12)NC(=O)C1(C(F)(F)F)CCN(CC(F)F)CC1 [Compound 953] | 100 to 1000 | < 10 |
| O=C(O)[C@H](Cc1cccc2c(-c3ncc(CN4CCC[C@@H](F)C4)cc3C3CC3)cccc12)NC(=O)C1(C(F)(F)F)CCN(CC(F)F)CC1 [Compound 954] | 100 to 1000 | < 10 |
| O=C(O)[C@H](Cc1cccc2c(-c3ncc(CCN4CCCCC4)c4ccccc34)cccc12)NC(=O)C1(C(F)(F)F)CCN(CC(F)F)CC1 [Compound 955] | 100 to 1000 | < 10 |
| COc1cccc(CCN2CCCCC2)c1-c1cccc2c(C[C@H](NC(=O)C3(C(F)(F)F)CCN(CC(F)(F)F)CC3)C(=O)O)cccc12 [Compound 956] | 100 to 1000 | < 10 |
| COc1ccc(CCN2CCC3(CCCCC3)CC2)c(OC)c1-c1cccc2c(C[C@H](NC(=O)C3(C(F)(F)F)CCN(CC(F)(F)F)CC3)C(=O)O)cccc12 [Compound 957] | 100 to 1000 | < 10 |
| COc1ccc(CCN2CCC(F)(F)CC2)c(OC)c1-c1cccc2c(C[C@H](NC(=O)C3(C(F)(F)F)CCN(CC(F)(F)F)CC3)C(=O)O)cccc12 [Compound 958] | 100 to 1000 | < 10 |
| COc1cccc(CCN2CCCC(F)C2)c1-c1cccc2c(C[C@H](NC(=O)C3(C(F)(F)F)CCN(CC(F)(F)F)CC3)C(=O)O)cccc12 (stereo partly shown) [Compound 959] | 100 to 1000 | < 10 |
| COc1cccc(CCN2CCC(C)(C)CC2)c1-c1cccc2c(C[C@H](NC(=O)C3(C(F)(F)F)CCN(CC(F)(F)F)CC3)C(=O)O)cccc12 [Compound 960] | > 1000 | < 10 |
| COc1cccc(CCN2CCCC(C)(C)C2)c1-c1cccc2c(C[C@H](NC(=O)C3(C(F)(F)F)CCN(CC(F)(F)F)CC3)C(=O)O)cccc12 [Compound 961] | 100 to 1000 | < 10 |
| O=C(O)[C@H](Cc1cccc2c(-c3ncc(CCN4CCCCC4)c4ccccc34)cccc12)NC(=O)C1(C(F)(F)F)CCN(CC(F)(F)F)CC1 [Compound 962] | > 1000 | < 10 |
| COc1cc(CCN2CCCCC2)ccc1-c1cccc2c(C[C@H](NC(=O)C3(C(F)(F)F)CCN(CC(F)(F)F)CC3)C(=O)O)cccc12 [Compound 963] | 100 to 1000 | < 10 |
| COc1cccc(CCN2CCC[C@H](F)C2)c1-c1cccc2c(C[C@H](NC(=O)C3(C(F)(F)F)CCN(CC(F)(F)F)CC3)C(=O)O)cccc12 [Compound 964] | > 1000 | 10 to 100 |
| O=C(O)[C@H](Cc1cccc2c(-c3ncccc3CCN3CCCCC3)cccc12)NC(=O)C1(C(F)(F)F)CCN(CC(F)(F)F)CC1 [Compound 965] | > 1000 | 10 to 100 |
| COc1ccc(CCN2CCC(F)CC2)c(OC)c1-c1cccc2c(C[C@H](NC(=O)C3(C(F)(F)F)CCN(CC(F)(F)F)CC3)C(=O)O)cccc12 [Compound 966] | 100 to 1000 | < 10 |
| COc1ccc(CCN2CCC(C)(C)CC2)c(OC)c1-c1cccc2c(C[C@H](NC(=O)C3(C(F)(F)F)CCN(CC(F)(F)F)CC3)C(=O)O)cccc12 [Compound 967] | 100 to 1000 | < 10 |
| COc1cccc(CCN2CCC(F)CC2)c1-c1cccc2c(C[C@H](NC(=O)C3(C(F)(F)F)CCN(CC(F)(F)F)CC3)C(=O)O)cccc12 [Compound 968] | 100 to 1000 | < 10 |
| COc1cccc(CCN2CCC[C@H](F)C2)c1-c1cccc2c(C[C@H](NC(=O)C3(C(F)(F)F)CCN(CC(F)F)CC3)C(=O)O)cccc12 [Compound 969] | > 1000 | < 10 |
| COc1cccc(CCN2CCC[C@@H](F)C2)c1-c1cccc2c(C[C@H](NC(=O)C3(C(F)(F)F)CCN(CC(F)F)CC3)C(=O)O)cccc12 [Compound 970] | 100 to 1000 | < 10 |
| COc1cccc(CCN2CCC(C)C(F)(F)CC2)c1-c1cccc2c(C[C@H](NC(=O)C3(C(F)(F)F)CCN(CC(F)F)CC3)C(=O)O)cccc12 (stereo partly shown) [Compound 971] | 100 to 1000 | < 10 |
| COc1cccc(CCN2CCC(C)C(F)(F)CC2)c1-c1cccc2c(C[C@H](NC(=O)C3(C(F)(F)F)CCN(CC(F)(F)F)CC3)C(=O)O)cccc12 (stereo partly shown) [Compound 972] | 100 to 1000 | < 10 |
| COc1cccc(CCN2CCC(c3ccccc3)CC2)c1-c1cccc2c(C[C@H](NC(=O)C3(C(F)(F)F)CCN(CC(F)(F)F)CC3)C(=O)O)cccc12 [Compound 973] | > 1000 | 10 to 100 |
| COc1cccc(CCN2CCC(F)(F)CC2)c1-c1cccc2c(C[C@H](NC(=O)C3(C(F)(F)F)CCN(CC(F)(F)F)CC3)C(=O)O)cccc12 [Compound 974] | > 1000 | 10 to 100 |
| COc1cccc(CCN2CCC(c3ccccc3)CC2)c1-c1cccc2c(C[C@H](NC(=O)C3(C(F)(F)F)CCN(CC(F)F)CC3)C(=O)O)cccc12 [Compound 975] | 100 to 1000 | < 10 |
| COc1cccc(CCN2CCC(F)(F)CC2)c1-c1cccc2c(C[C@H](NC(=O)C3(C(F)(F)F)CCN(CC(F)F)CC3)C(=O)O)cccc12 [Compound 976] | 100 to 1000 | < 10 |
| O=C(O)[C@H](Cc1cccc2c(-c3ncc(CCN4CCC[C@@H](F)C4)c4ccccc34)cccc12)NC(=O)C1(C(F)(F)F)CCN(CC(F)(F)F)CC1 [Compound 977] | > 1000 | < 10 |
| O=C(O)[C@H](Cc1cccc2c(-c3ncc(CCN4CCC[C@H](F)C4)c4ccccc34)cccc12)NC(=O)C1(C(F)(F)F)CCN(CC(F)(F)F)CC1 [Compound 978] | > 1000 | < 10 |
| O=C(O)[C@H](Cc1cccc2c(-c3ncc(CCN4CCC(F)(F)CC4)c4ccccc34)cccc12)NC(=O)C1(C(F)(F)F)CCN(CC(F)(F)F)CC1 [Compound 980] | > 1000 | 10 to 100 |
| CC(C)(C)C1CCN(CCc2cnc(-c3cccc4c(C[C@H](NC(=O)C5(C(F)(F)F)CCN(CC(F)(F)F)CC5)C(=O)O)cccc34)c3ccccc23)CC1 [Compound 981] | > 1000 | < 10 |
| O=C(O)[C@H](Cc1cccc2c(-c3nccc4cccc(CCN5CCCCC5)c34)cccc12)NC(=O)C1(C(F)(F)F)CCN(CC(F)(F)F)CC1 [Compound 982] | > 1000 | < 10 |
